Experimental findings from ChEMBL document CHEMBL1201862, “PubChem BioAssay data set” (2004) are described below.

SMILES strings stand for the structures.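 Following 48 hours of exposure in 96-well plates, responses at five concentrations were used to interpolate endpoints linearly. GI50 marks 50% less growth.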 Activity calls are given as the source filed them. No stated cut-off is given here; in the data, active = GI50 up to about 1.1 µM and inactive = higher.

Assay in all cases: DTP human tumour cell line panel, 48 h
Assay [1] concerns SK-OV-3.
The subject of assay [2] is OVCAR-8.
The subject of assay [3] is UACC-62.
The subject of assay [4] is IGROV-1.
Assay [5] has as its system MOLT-4.
Assay [6] deals with NCI-H23.
Assay [7] deals with KM12.
For assay [8], the system named is HT-29.
Assay [9] deals with SK-MEL-5.
Assay [10] relates to U-251.
The subject of assay [11] is OVCAR-5.
Assay [12] concerns SF-295.
Assay [13] deals with CCRF-CEM.
In assay [14] the test system is HOP-62.
Assay [15] relates to SN12C.
The test system of assay [16] is SW-620.
Assay [17] deals with SK-MEL-2.
Assay [18] deals with RXF 393.
The subject of assay [19] is SK-MEL-28.
Assay [20] has as its system UO-31.

As a reminder, the GI50 is the concentration that inhibits growth by half.

On to `CCOC(=O)NC(=O)c1cn(CCNCCO)c(=O)[nH]c1=O`, for which the GI50 in assay [1], in assay [2], in [3], in assay [4], in [5] and in assay [6] was > 100 µM (inactive) throughout. Also, the GI50 in assay [7], in assay [8], in [9], in assay [10], in assay [11] and in assay [12] was > 100 µM (inactive) throughout. Also, the GI50 in assay [13], in assay [14], in assay [15], in assay [16] and in assay [17] was > 100 µM (inactive) in each case.

As to `Cc1ccc(C(=O)C2CC3(CCC2(O)c2ccc(C)cc2)CC(=O)Nc2ccccc2C3=O)cc1` (centres undefined), the GI50 was > 100 µM (inactive) in assay [1]; > 100 µM (inactive) in assay [2]; > 100 µM (inactive) in assay [3]; > 100 µM (inactive) in assay [4]; 4.91 µM (inactive) in assay [5]; 16.1 µM (inactive) in assay [18]. Moreover, the GI50 in assay [6] was > 100 µM (inactive); in assay [8] it was > 100 µM (inactive); in assay [9], 6.89 µM (inactive); in assay [10] it was 8.39 µM (inactive); in assay [19], > 100 µM (inactive); in [20] it was > 100 µM (inactive). Also, the GI50 in [11] is > 100 µM (inactive); in assay [12], 28.4 µM (inactive); in assay [13] it was 5.66 µM (inactive); in assay [14], 99.3 µM (inactive); in assay [15], > 100 µM (inactive); in assay [16], > 100 µM (inactive). For the same molecule, the GI50 in [17] is > 100 µM (inactive).

Take `COc1nc(-c2cn(S(=O)(=O)c3ccc(C)cc3)c3ccc(Br)cc23)cc(C(F)(F)F)c1C#N`: the GI50 in [1] was 21 µM (inactive); in assay [2], 25.6 µM (inactive); in [3], 38.8 µM (inactive); in assay [4], 28.4 µM (inactive); in [5] it was 31.3 µM (inactive); in assay [18], 19.8 µM (inactive). In addition, the GI50 in assay [6] is 18.8 µM (inactive); in [7], > 100 µM (inactive); in assay [8], > 100 µM (inactive); in [9], 77.6 µM (inactive); in assay [10] it was 16.9 µM (inactive); in assay [19] it was 94.4 µM (inactive). Also, the GI50 in [20] is 55 µM (inactive); in assay [11], 61.5 µM (inactive); in [12], 97.3 µM (inactive); in assay [13], 24.8 µM (inactive); in assay [15], 45.1 µM (inactive); in assay [16], 66.2 µM (inactive). The GI50 in assay [17] is 65.6 µM (inactive).

Consider `CC(=O)Nc1ccc(C(=O)NN2C(=O)C(Cl)C2/C=C/c2ccccc2)cc1` (centres undefined), for which the GI50 in assay [1], in assay [2], in assay [3], in assay [4], in assay [5] and in [6] was > 100 µM (inactive) each time. For the same molecule, the GI50 in [7], in assay [8], in [9], in assay [10], in assay [19] and in assay [20] was > 100 µM (inactive) each time. For the same molecule, the GI50 in assay [11], in assay [12], in [13], in assay [14], in [16] and in assay [17] was > 100 µM (inactive) throughout.

For `Nc1nc(=O)n(CC(O)CO)s1` (centres undefined), the GI50 in assay [2], in [3], in assay [4], in [5], in assay [18] and in [6] was > 100 µM (inactive) in each case. Besides, the GI50 in assay [8] was > 100 µM (inactive); in assay [9], > 100 µM (inactive); in [10] it was > 100 µM (inactive); in assay [19] it was < 0.01 µM (active); in [20] it was > 100 µM (inactive); in assay [11], > 100 µM (inactive). Further, the GI50 in assay [12], in [13], in [14], in [15], in assay [16] and in [17] was > 100 µM (inactive) throughout.

On to `COc1ccc(N2C(=O)CSC2c2c[nH]c3ccccc23)cc1` (centres undefined), for which the GI50 is > 100 µM (inactive) in assay [1]; 60 µM (inactive) in assay [2]; 44.9 µM (inactive) in assay [3]; > 100 µM (inactive) in [4]; 33 µM (inactive) in [5]; > 100 µM (inactive) in assay [18]. Moreover, the GI50 in assay [6] is 69.7 µM (inactive); in [7] it was 28.4 µM (inactive); in [8], 51.1 µM (inactive); in assay [9], 88.5 µM (inactive); in assay [10], 88.7 µM (inactive); in assay [19] it was > 100 µM (inactive). Further, the GI50 in [20] was 49.8 µM (inactive); in assay [11] it was > 100 µM (inactive); in assay [12] it was 44.9 µM (inactive); in assay [13], 39.5 µM (inactive); in assay [14], > 100 µM (inactive); in assay [15], > 100 µM (inactive). The GI50 in [16] was > 100 µM (inactive).

With `CCOC(=O)[C@H]1Nc2c(cccc2[N+](=O)[O-])[C@H]2OCC[C@@H]12`, the GI50 in assay [2], in [3], in [4], in assay [5], in [18] and in assay [6] was > 100 µM (inactive) throughout. Moreover, the GI50 in [7], in assay [8], in assay [9], in [10], in assay [19] and in assay [20] was > 100 µM (inactive) in each case. The GI50 in [11], in assay [12], in assay [14], in assay [15], in assay [16] and in assay [17] was > 100 µM (inactive) in each case.

`Cn1c(=O)[nH]c2c(c1=O)C(=O)CN2`: the GI50 in assay [1], in [2], in [4], in [5], in [18] and in [7] was > 100 µM (inactive) in each case. In addition, the GI50 in [9], in [10], in assay [19], in assay [20], in assay [11] and in assay [12] was > 100 µM (inactive) throughout. Further, the GI50 in [13], in assay [15], in [16] and in assay [17] was > 100 µM (inactive) throughout.
